# Where “and” joins values, the source holds several entries; their conditions need not be identical. Equal entries are not always repeated. Entries after “also recorded” stand apart in the source; their conditions may differ.
# Columns and labels:
# [1] = system: MRSA; experiment: MRSA CFU counts on agar with trimethoprim or erythromycin after sub-lethal NIMELS laser (Example VIII); type: cell-based, Staphylococcus aureus
# From the text: (§1) The following illustrates the general antibacterial methods according to the invention, using a MRSA model for the in vitro Experiments V and VIII-XII.
# (§2) a) μ1 is sub-lethal dosimetry from the NIMEL laser system on MRSA as a control and;
# [2] = system: MRSA; experiment: MRSA/antimicrobial potentiation Experiment 4: CFU with or without methicillin, penicillin G or erythromycin, groups A4 to F4; type: cell-based, Staphylococcus aureus; details: for synergy or potentiation with NIMELS in growth inhibition of MRSA colonies (in words): sub-lethal NIMELS dosimetry, bar chart figure; for reversal of MRSA resistance in vitro by dual wavelength NOVEON laser (in words): temperature levels not lethal to the organism
# From the text: Two different laser dosages based on an effective dose established in previous experiments were used to treat a saline-suspension of logarithmically growing MRSA, labeled A4 to F4.
# [3] = system: MRSA colonization in the nares; experiment: Human study Part One: nasal colonization of MRSA, NOVEON laser alone, with H2O2 or with topical erythromycin; type: in vivo, Staphylococcus aureus
# Method: (§3) This investigational protocol was an open-label study of subjects who are colonized with MRSA in the nares (nostril). The study was done in two parts.
# (§4) In this human study, three arms were produced. […] This was done on day 1 and again on day three; and Arm #3: ⅓ of the subjects were treated with the laser and then a topical antibiotic three times a day for five days. Prior to enrollment in this study, prospective subjects met all of the following criteria: age≧18 years and ≦70 years of age; previous positive MRSA culture; negative urine pregnancy test or post-menopausal for one year; willing to comply with study requirements, including return visits and self-application of topical antibiotics; and willing to provide informed consent to participate. Prospective subjects were excluded from this study if any of the following criteria were met: pregnancy; patients who are severely immunocompromised (such as may occur in AIDS, renal transplant regimens, immunosuppressed states consequent to malignancy or agents used in rendering oncologic care, or who suffer from end stage renal disease); diabetic patients; allergy to antimicrobials being used in the study (group 3).
# (§5) All participants underwent an initial quantitative assessment for nasal carriage of S. aureus, during their first visit. Each participant had the anterior nares (each nostril) sampled for culture with a circular movement (three rotations on each side) of a sterile wood applicator plain Rayon® tipped swab in each nostril and placed in a labeled tube. 2 ml of room temp phosphate buffered saline was placed in the tube after the removal of the swab (to completely cover the swab in the tube). Each swab was then placed back in the tube and the tube was then vortexed for 15 seconds to disperse isolates of MRSA and/or MSSA into the PBS solution. Aliquots of PBS from the tube were plated in the following manner: 100 μl from each tube was lawn plated in triplicate (3×) on selective Chromogenic MRSA And MSSA agar. Plates were placed in incubator within 30 minutes of the plating procedure, and colonies were counted manually, and recorded 18 hrs after plating.
# (§6) On day one of the study, all subjects underwent this exact procedure in arms 1 and 2 of the study two minutes before the laser procedure. They again were sampled in the same manner 2 minutes after the laser procedure. In the third arm of the study, they were swabbed two minutes before the procedure and the first antibiotic administration was completed after the laser therapy. The post/laser swab sample was taken for this arm 20 min later.
# (§7) On day three of the study, all subjects from arms one two and three underwent the exact same procedures as day 1 of the study.
# (§8) On day five all subjects from all arms underwent just one swabbing per nostril with the exact same sampling procedure one time.
# (§9) 3% OTC hydrogen peroxide was applied to a cotton pledget for application to the subject prior to irradiation. This was inserted in the nose for 120 seconds and then removed. The subjects were then given doses of phototherapeutic near infrared radiation as described.
# (§10) The subjects were first given doses of phototherapeutic near infrared radiation as described. […] The swab was inserted approximately 1 cm in to the anterior nares and rotated 360 degrees several times and removed. Patients were instructed to perform the exact application procedure 3 times a day for the remaining 5 days.
# (§11) The NOVEON™ laser was used for two (2) six-minute treatments in each nostril on day (1) and day (3) of the study.
# (§12) The laser was calibrated before the first treatment of the day. Intermittent temperature testing of the treatment site was performed on each subject using a noncontact infrared thermometer (Raytek Minitemp), 30-60 second intervals. If a temperature of 110 F degrees was reached, or the patient complained of pain, the laser treatment was interrupted and only resumed when the patient was comfortable.
# [4] = system: MSSA colonies in the nares; experiment: Human study Part One: nasal colonization of MSSA, NOVEON laser alone, with H2O2 or with topical erythromycin; type: in vivo, Staphylococcus aureus; details: patient 01-005, Laser/erythromycin arm
# Method: as §3, §4, §5, §6, §7, §8, §9, §10, §11, §12
# [5] = system: nasal colonization of MRSA; experiment: Human study Part Two: nasal colonization of erythromycin resistant MRSA, NOVEON laser plus 2% erythromycin paste; type: in vivo, Staphylococcus aureus; details: six patients, before phototherapy
# Method: (§13) A second human study was conducted, to further evaluate the therapeutic potential of the NOVEON™ laser system, including its ability to reverse drug resistance in bacteria. The study was conducted in a similar manner as Part One, above. Outcome measures assessed included both laboratory study and clinical observations.
# (§14) Positive anterior nares cultures were obtained in six patients (12 nostrils) having nasal colonization of MRSA or MSSA, before initiating bacterial photodamage through doses of phototherapeutic near infrared radiation.
# (§15) The swab was inserted approximately 1 cm in to the anterior nares of the subject, rotated 360 degrees several times and removed.
# (§16) The laser was calibrated before the first treatment of the day and between each patient. The NOVEON™ laser was used for four six-minute treatments of the nares at the following sets of dosimetries (Tables 45), which were evaluated for safety in previous studies. Utilizing a 10 cm flat-top diffuser, each patient underwent exposure with the Noveon for […] (energy density—207 J/cm2) to each anterior nostril on Day 1 and on Day 3. The treatment was divided into two parts, an approximately 3-minute exposure using a combination of 870 nm and 930 nm and an approximately 3-minute exposure of 930 nm alone. Temperatures of the nares were recorded every 30 seconds with an IR temperature thermometer.
# [6] = system: nasal colonization of MSSA; experiment: Human study Part Two: nasal colonization of erythromycin resistant MSSA, NOVEON laser plus 2% erythromycin paste; type: in vivo, Staphylococcus aureus; details: six patients, before phototherapy
# Method: as §13, §14, §15, §16
# [7] = system: MRSA; experiment: MRSA CFU count with methicillin after sub-lethal NIMELS laser (Example X); type: cell-based, Staphylococcus aureus; details: methicillin at resistant MIC just below effectiveness level
# From the text: as §1, §2
# [8] = system: MRSA; experiment: MRSA/antimicrobial potentiation Experiment 1: CFU with or without 30 μg/ml methicillin, laser dosages A1 to H1; type: cell-based, Staphylococcus aureus; details: for fewer CFU in the laser treated samples compared to the untreated controls: methicillin plates (30 μg/ml)
# Method: Four separate experiments have been performed.
# Eight different laser dosages were used to treat a saline-suspension of logarithmically growing MRSA, labeled A1 to H1.
# (§17) The treated and a control untreated suspension were diluted and plated in triplicate on trypic soy agar with or without 30 μg/ml methicillin.
# (§18) After 24 hrs of growth at 37° C. colonies were counted.
# CFU (colony forming units) were compared between the plates with and without methicillin for both control (untreated) and treated MRSA.
# [9] = system: MRSA; experiment: MRSA/antimicrobial potentiation Experiment 2: CFU with or without 30 μg/ml methicillin, laser dosages A2 to H2; type: cell-based, Staphylococcus aureus; details: for Fold increase in methicillin sensitivity: 30 μg/ml methicillin
# Method: Eight different laser dosages based on an effective dose established in experiment 1 and previously were used to treat a saline-suspension of logarithmically growing MRSA, labeled A2 to H2.
# as §17, §18
# [10] = system: MRSA; experiment: MRSA/antimicrobial potentiation Experiment 3: CFU with or without 30 μg/ml methicillin, laser dosages A3 to H3; type: cell-based, Staphylococcus aureus; details: for Fold increase in methicillin sensitivity: 30 μg/ml methicillin
# Method: Eight different laser dosages based on an effective dose established in experiments 1 and 2 and previously were used to treat a saline-suspension of logarithmically growing MRSA, labeled A3 to H3.
# […] After 24 hrs of growth at 37° C. colonies were counted.
# [11] = patient 01-005, Laser/erythromycin arm, 2% erythromycin paste 3 times a day
smiles,measurement,setting,value
CC[C@H]1OC(=O)[C@H](C)[C@@H](O[C@H]2C[C@@](C)(OC)[C@@H](O)[C@H](C)O2)[C@H](C)[C@@H](O[C@@H]2O[C@H](C)C[C@H](N(C)C)[C@H]2O)[C@](C)(O)C[C@@H](C)C(=O)[C@H](C)[C@@H](O)[C@]1(C)O [Erythromycin],"MRSA colony count, EXPERIMENTAL, erythro 4 ug/ml","[1]; sub-lethal NIMELS laser, then plated on agar with erythromycin 4 ug/ml, plates B-4 1 to 5",27 and 39 and 35 and 28
same,effect of sub-lethal NIMELS on antibiotic resistance of MRSA (in words),"[1]; sub-lethal laser parameters, erythromycin 4 ug/ml",resistance to erythromycin being reversed
same,CFU,"[2]; Group E4, Exp (laser treated), agar with 4 μg/ml erythromycin, replicate plates 1-5",0 CFU (3×) and 1 CFU (2×)
same,CFU,"[2]; Group F4, Cont (no laser), agar with 4 μg/ml erythromycin, replicate plates 1-5, 24 hrs 37° C.",170 CFU
same,CFU,"[2]; Group F4, Exp (laser treated), agar with 4 μg/ml erythromycin, replicate plates 1-5",2 CFU and 7 CFU and 6 CFU (2×) and 8 CFU
same,synergy or potentiation with NIMELS in growth inhibition of MRSA colonies (in words),[2],synergistic effects; also recorded: potentiated to a greater extent
same,reversal of MRSA resistance in vitro by dual wavelength NOVEON laser (in words),[2],successful reversal of MRSA resistance
same,outcome on MRSA colonization (in words),"[3]; patient 01-005, Laser/erythromycin arm",MRSA and MSSA eradication in both nostrils
same,"reduction of bioburden, heavily colonized nostril",[3]; [11],≥ 3 log
same,"reduction of bioburden, moderately colonized nostril",[3]; [11],≥ 2 log
same,sensitivity of the patient's MRSA colony to erythromycin before phototherapy,"[3]; patient 01-005, prior to phototherapy",not sensitive to erythromycin prior to phototherapy
same,outcome on MSSA colonization (in words),[4],MRSA and MSSA eradication in both nostrils
same,erythromycin resistance of cultured MRSA at baseline,[5],resistant to erythromycin
same,erythromycin resistance of cultured MSSA at baseline,[6],resistant to erythromycin
COc1cccc(OC)c1C(=O)N[C@@H]1C(=O)N2[C@@H]1SC(C)(C)[C@@H]2C(=O)O [Methicillin],effect of methicillin after sub-lethal NIMELS irradiation on growth of MRSA colonies (in words),[7],potentiated by sub-lethal NIMELS dosimetry; also recorded: produces a deleterious effect after sub-lethal NIMEL irradiation on normal growth of MRSA colonies
same,AVG (CFU),"[8]; Exp (laser treated), laser dosage F1, with 30 μg/ml methicillin",197 CFU
same,fewer CFU in the laser treated samples compared to the untreated controls,[8]; condition A1,30%
same,fewer CFU in the laser treated samples compared to the untreated controls,[8]; condition B1,33%
same,fewer CFU in the laser treated samples compared to the untreated controls,[8]; condition C1,67%
same,sensitization of MRSA by laser treatment (in words),"[8]; treatments performed on sample A1, B1 and C1",sensitized the MRSA to the effects of methicillin
same,CFU AVG,"[9]; A2, Exp (laser treated), plates with 30 μg/ml methicillin",41
same,effectiveness of methicillin in laser treated samples (in words),"[9]; CFU on plates with and without 30 μg/ml methicillin, groups A2 to H2",significant increase in the effectiveness of methicillin in all laser treated samples with the exception of A2 and B2
same,CFU AVG,"[9]; D2, Cont (untreated suspension), plates with 30 μg/ml methicillin",52
same,CFU AVG,"[9]; D2, Exp (laser treated), plates with 30 μg/ml methicillin",2.3
same,CFU AVG,"[9]; E2, Exp (laser treated), plates with 30 μg/ml methicillin",2.7
same,CFU AVG,"[9]; F2, Cont (untreated suspension), plates with 30 μg/ml methicillin",71
same,CFU AVG,"[9]; G2, Exp (laser treated), plates with 30 μg/ml methicillin",8.3
same,CFU,"[9]; H2, Cont (untreated suspension), plates with 30 μg/ml methicillin, single plates",82
same,Fold increase in methicillin sensitivity,[9]; laser dosage grouping A2,0.84
same,Fold increase in methicillin sensitivity,[9]; laser dosage grouping B2,0.91
same,Fold increase in methicillin sensitivity,[9]; laser dosage grouping C2,3.20
same,Fold increase in methicillin sensitivity,[9]; laser dosage grouping D2,2.44
same,Fold increase in methicillin sensitivity,[9]; laser dosage grouping E2,4.33
same,Fold increase in methicillin sensitivity,[9]; laser dosage grouping F2,2.13
same,Fold increase in methicillin sensitivity,[9]; laser dosage grouping G2,3.47
same,Fold increase in methicillin sensitivity,[9]; laser dosage grouping H2,1.62
same,CFU AVG,"[10]; B3, Exp (laser treated), plates with 30 μg/ml methicillin",19
same,effectiveness of methicillin in laser treated samples (in words),"[10]; CFU on plates with and without 30 μg/ml methicillin, groups A3 to H3",significant increase in the effectiveness of methicillin in all laser treated samples
same,CFU,"[10]; D3, Cont (untreated suspension), plates with 30 μg/ml methicillin, single plates",58
same,CFU AVG,"[10]; D3, Exp (laser treated), plates with 30 μg/ml methicillin",3.6
same,CFU AVG,"[10]; F3, Exp (laser treated), plates with 30 μg/ml methicillin",9.8
same,CFU AVG,"[10]; G3, Exp (laser treated), plates with 30 μg/ml methicillin",8.4
same,CFU AVG,"[10]; H3, Exp (laser treated), plates with 30 μg/ml methicillin",8.4
same,Fold increase in methicillin sensitivity,[10]; laser dosage grouping A3,1.98
same,Fold increase in methicillin sensitivity,[10]; laser dosage grouping B3,1.62
same,Fold increase in methicillin sensitivity,[10]; laser dosage grouping C3,1.91
same,Fold increase in methicillin sensitivity,[10]; laser dosage grouping D3,2.59
same,Fold increase in methicillin sensitivity,[10]; laser dosage grouping E3,2.09
same,Fold increase in methicillin sensitivity,[10]; laser dosage grouping F3,2.08
same,Fold increase in methicillin sensitivity,[10]; laser dosage grouping G3,3.16
same,Fold increase in methicillin sensitivity,[10]; laser dosage grouping H3,2.97
same,CFU,"[2]; Group A4, Cont (no laser), agar with 30 μg/ml methicillin, replicate plates 1-5, 24 hrs 37° C.",97 CFU and 90 CFU
same,CFU,"[2]; Group A4, Exp (laser treated), agar with 30 μg/ml methicillin, replicate plates 1-5",37 CFU and 33 CFU and 36 CFU (2×) and 39 CFU
same,CFU,"[2]; Group B4, Exp (laser treated), agar with 30 μg/ml methicillin, replicate plates 1-5",46 CFU (2×) and 34 CFU and 42 CFU and 44 CFU
same,synergy or potentiation with NIMELS in growth inhibition of MRSA colonies (in words),[2],synergistic effects; also recorded: potentiated by sub-lethal NIMELS dosimetry
same,reversal of MRSA resistance in vitro by dual wavelength NOVEON laser (in words),[2],successful reversal of MRSA resistance

# From patent US8983257B2, “Therapeutic light delivery apparatus, method, and system” (Nomir Medical Technologies, Inc., priority 2002, dated 2015)
